Results on 3 compounds are retold here after PMC4507179, “Insights into the key interactions between human protein phosphatase 5 and cantharidin using molecular dynamics and site-directed mutagenesis bioassays” (Scientific Reports, 2015).

Substitutions are numbered along the chain they refer to.

Assay [1] concerns the target T1, recombinant wild-type HuPP5 (Homo sapiens, UniProt P53041).
T1 construct: 6xHis (N); made in house; host or cells: Escherichia coli BL21(DE3)pLysS, pET43.1b
T1 sequence (P53041 1-499): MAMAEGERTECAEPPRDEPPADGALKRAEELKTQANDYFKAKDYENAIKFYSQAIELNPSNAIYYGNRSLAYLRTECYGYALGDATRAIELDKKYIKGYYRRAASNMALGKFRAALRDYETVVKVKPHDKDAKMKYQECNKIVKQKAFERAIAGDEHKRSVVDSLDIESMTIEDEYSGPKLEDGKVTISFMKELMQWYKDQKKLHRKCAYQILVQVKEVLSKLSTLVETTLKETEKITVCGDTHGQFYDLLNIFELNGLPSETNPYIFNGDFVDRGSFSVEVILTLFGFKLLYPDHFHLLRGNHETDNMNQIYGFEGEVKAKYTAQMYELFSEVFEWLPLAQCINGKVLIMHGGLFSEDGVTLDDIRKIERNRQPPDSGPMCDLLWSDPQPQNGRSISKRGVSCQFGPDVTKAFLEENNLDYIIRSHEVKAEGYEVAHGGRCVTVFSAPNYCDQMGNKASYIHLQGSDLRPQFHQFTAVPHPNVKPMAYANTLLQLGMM
Kind of assay: Inhibition of recombinant wild-type HuPP5 phosphatase activity (p-NPP substrate). Format: biochemical. The settings on record: mean ± S.D., three independent experiments. As to the method: The structures for the manganese-containing systems (Figure S2) were taken from the Research Collaboration for Structural Bioinformatics protein database (RCSB Protein Data Bank, PDB ID: 3H63; 3H61; 3H64)[22], and all the structures were visualized using pymol 1.3 r1 edu. Manganese-related force field parameters were determined using Seminario’s method. Atomic single charge was calculated using the restrained electrostatic potential (RESP) fitting protocol. The Quantum Mechanics (QM) and Molecular Mechanics (MM) vibrational frequencies were compared to check the quality of the force field parameters. We performed three individual 50 ns MD at different seeds for each system. All MD simulations were performed with the AMBER12 package. All MD results were analyzed with the Ambertools13 package based on three individual 50 ns MD trajectories, and the data were averaged. Molecular Mechanics-Poisson-Boltzmann Surface Area (MM-PBSA)[32] calculations were performed on 1000 snapshots exacted from 40 ~ 50 ns production trajectories with a time interval of 10 ps to estimate the binding free energy. Since only the catalytic domain was used in the simulations, the starting point in our constructed structure corresponds to the 176th residue in the reference structure. […] The IC50 values of the three compounds against all HuPP5 proteins were calculated from the dose-dependent inhibition assay. […]
Cells were harvested by centrifugation (8,000 g for 10 min at 4 ℃) and were lysed by sonication in buffer A (20 mM Tris-HCl, pH=8.0, 4 mM MnCl2, 300 mM NaCl) containing 20 mM imidazole, 0.1% β-mercaptoethanol, 1.0 mg/ml lysozyme and 1 mM PMSF. […] Protein concentrations were determined using a BCA Protein Assay Kit (Pierce, Thermo Scientific, Rockford, IL, USA).
Enzymatic assays and inhibition studies. Phosphatase activity was measured using p-NPP (p-nitrophenyl phosphate) as substrate. […]

For another assay, the target named is T2, HuPP5 R100A (Homo sapiens, UniProt P53041, R275A).
T2 construct: 6xHis (N); made in house; host or cells: Escherichia coli BL21(DE3)pLysS, pET43.1b
T2 sequence (P53041 1-499 R275A): T1 sequence (P53041 1-499) with R275A
Kind of assay: Inhibition of recombinant HuPP5 mutant R100A (p-NPP substrate). Format: biochemical. Conditions: for IC50: recombinant HuPP5 R100A, p-NPP, mean ± S.D., three independent experiments; for ΔΔGbind-exp, R100A: ΔΔGbind = RTln(IC50 mutant/IC50 wild-type). From the text: (§1) A PCR-based site-directed mutagenesis approach was used to change Arg 100 to Ala (R100A), His 129 to Ala (H129A), and Arg 225 to Ala (R225A). All recombinant enzymes were soluble, expressed in E. coli and purified to homogeneity (>90% pure) (Figure S9). […] However, their inhibitory activity was suppressed against the three individually site-directed mutagenesis HuPP5: R100A, H129A, and R225A (Table S7). H129A appears to be most unfavorable to the binding of these inhibitors due to the highest IC50 values (>10 mM). […]
(§2) Site-directed mutagenesis. The sequence encoding the ORF of Human PP5 (HuPP5) was isolated from the liver cancer cell line SMMC-7721 by PCR using primers that introduced a Nde I site and 6xHis tag at the forward one, and a Xho I site at the reverse one. The PCR products were cloned into pCR2.1 (Invitrogen, Carlsbad, CA, USA) and transformed into DH5α (TaKaRa, Dalian, China) and then sequenced (AuGCT, Inc., Beijing, China). The mutants were generated using the QuikChange® site-directed mutagenesis kit (Stratagene, La Jolla, CA, USA) following the instruction manual. The mutagenic primers were designed based on the sequence of wild-type […]
(§3) The mutants were sequenced to confirm the presence of the desired mutations and the lack of undesired mutations.
(§4) Protein expression and purification. The wild-type and mutants HuPP5 were then cloned into the corresponding sites of pET43.1b (Novagen, Madison, WI, USA) and transformed into Escherichia coli BL21(DE3)pLysS (Novagen, Madison, WI, USA). Proteins were expressed in LB (also on this page, place not known: scan ning. T he Cβ -H Cβ -Cγ. energ y tantbinding mu wildtypeG G G −−ΔΔ =Δ −Δ tantbinding muG −Δ binding wildtypeG −Δ binding re spectively. bindingGΔΔ binding (Invitrogen , USA ) site -directed (Stratagene , USA ) wild -type S 5. purification . s ites (Novagen , USA )) […]
(§5) (Luria-Bertani) broth (containing 2 mM MnCl2, 100 μg/ml ampicillin and 34 μg/ml chloramphenicol) and induced with 0.1 mM IPTG (isopropyl β-thiogalactoside) for 24 h at 18 ℃.
(§6) Cells were harvested by centrifugation (8,000 g for 10 min at 4 ℃) and were lysed by sonication in buffer A (20 mM Tris-HCl, pH=8.0, 4 mM MnCl2, 300 mM NaCl) containing 20 mM imidazole, 0.1% β-mercaptoethanol, 1.0 mg/ml lysozyme and 1 mM PMSF. After centrifugation for 20 min at 20,000 g at 4 ℃, the supernatant was loaded to a buffer A pre-equilibrated Ni-NTA affinity column (Transgen, Beijing, China) to bind the 6xHis tagged protein. The reduction of non-specific interactions between the extract proteins and the matrix was achieved by washing the Ni-NTA resins with buffer B (20 mM Tris-HCl, pH=8.0, 300 mM NaCl, 1 mM EGTA, 0.1% β-mercaptoethanol, 4 mM MnCl2) containing 20 mM imidazole. Elution was then conducted using 150 mM imidazole in buffer B. The eluted HuPP5 fractions were pooled and dialyzed against buffer C (buffer B + 50% glycerol) overnight. Dialyzed samples were subjected to 12% SDS-PAGE and stained with Coomassie blue. Protein concentrations were determined using a BCA Protein Assay Kit (Pierce, Thermo Scientific, Rockford, IL, USA).
(§7) Enzymatic assays and inhibition studies. Phosphatase activity was measured using p-NPP (p-nitrophenyl phosphate) as substrate. Assays were performed in a 200 μL reaction containing 500 ng protein and assay buffer (20 mM p-NPP in 20 mM Tris (pH 7.4), 100 μM arachidonic acid, 1 mM EGTA, 0.1% β-mercaptoethanol and 0.1% ethanol). The reaction was initiated by adding the p-NPP and incubated at 35 ℃ for 10 min. Control reactions were assayed without enzyme.
(§8) Assays were terminated by addition of 200 μL of 5 N NaOH. Sample absorbance was measured at A410 using the TECANTM Infinite® 200 PRO multimode micro-plate reader after subtracting the appropriate background. Kinetic parameters were determined by using the Michaelis-Menten […]
(§9) plot analysis of data obtained under the assay conditions as mentioned above with the addition of […]

Another assay has as its target T3, HuPP5 H129A (Homo sapiens, UniProt P53041, H304A).
T3 construct: 6xHis (N); made in house; host or cells: Escherichia coli BL21(DE3)pLysS, pET43.1b
T3 sequence (P53041 1-499 H304A): T1 sequence (P53041 1-499) with H304A
Kind of assay: Inhibition of recombinant HuPP5 mutant H129A (p-NPP substrate). The class given is biochemical. Conditions: for IC50: recombinant HuPP5 H129A, p-NPP; for ΔΔGbind-exp, H129A: ΔΔGbind = RTln(IC50 mutant/IC50 wild-type).
Excerpt: as §1, §2, §3, §4, §5, §6, §7, §8, §9

The next assay addresses T4, HuPP5 R225A (Homo sapiens, UniProt P53041, R400A).
T4 construct: 6xHis (N); made in house; host or cells: Escherichia coli BL21(DE3)pLysS, pET43.1b
T4 sequence (P53041 1-499 R400A): T1 sequence (P53041 1-499) with R400A
Description: Inhibition of recombinant HuPP5 mutant R225A (p-NPP substrate). The class given is biochemical. The settings on record: for IC50: recombinant HuPP5 R225A, p-NPP, mean ± S.D., three independent experiments; for ΔΔGbind-exp, R225A: ΔΔGbind = RTln(IC50 mutant/IC50 wild-type).
Excerpt: as §1, §2, §3, §4, §5, §6, §7, §8, §9

The subject of another assay is PP5. Also noted: method as in PMID 17200551, PMID 19025735, PMID 20331621. The settings on record: read-out: relative IC50 value against PP5; cited from earlier work.

Take `O=C1OC(=O)[C@H]2[C@@H]1[C@@H]1CC[C@H]2O1` [Norcantharidin, norcantharidin]: the IC50 (in general, the concentration needed to halve the response being measured) in assay [1] was 4.18 µM; at HuPP5 R100A, 17.8 ± 1.44 µM; on HuPP5 H129A, more than 10000 µM; on HuPP5 R225A it was 164 ± 9.84 µM. In addition, the “ΔΔGbind-exp, R100A” value at HuPP5 R100A is 0.88 kcal/mol. Besides, the “ΔΔGbind-exp, H129A” value on HuPP5 H129A was more than 4.75 kcal/mol. The “ΔΔGbind-exp, R225A” value on HuPP5 R225A was determined as 2.24 kcal/mol.

As to `C[C@@]12C(=O)OC(=O)[C@]1(C)[C@H]1CC[C@@H]2O1` [Cantharidin, cantharidin], the IC50 was 0.82 µM in assay [1]; 4.05 ± 0.34 µM at HuPP5 R100A; more than 10000 µM at HuPP5 H129A; 21.9 ± 1.12 µM on HuPP5 R225A; 0.6 µM in the assay with PP5. Moreover, the “ΔΔGbind-exp, R100A” value at HuPP5 R100A was 0.97 kcal/mol. For the same compound, the “ΔΔGbind-exp, H129A” value at HuPP5 H129A is more than 5.74 kcal/mol. Moreover, on HuPP5 R225A, the “ΔΔGbind-exp, R225A” value was 2.03 kcal/mol.

Regarding `O=C(O)[C@@H]1[C@H](C(=O)O)[C@H]2CC[C@@H]1O2` [Endothall, endothall], the IC50 in assay [1] amounted to 3.64 µM. At HuPP5 R100A, the IC50 turned out to be 18.4 ± 0.39 µM and the “ΔΔGbind-exp, R100A” value came out at 0.99 kcal/mol. Further, on HuPP5 H129A, the IC50 was more than 10000 µM and the “ΔΔGbind-exp, H129A” value is on record as more than 4.83 kcal/mol. Also, the “IC50 on R225A higher than that of cantharidin” value on HuPP5 R225A (ratio of IC50 values on HuPP5 R225A, versus cantharidin) is listed as 48.54 fold. At HuPP5 R225A (ratio of IC50 values on HuPP5 R225A, versus norcantharidin), the “IC50 on R225A higher than that of norcantharidin” value turned out to be 6.47 fold. In addition, on HuPP5 R225A, the IC50 is 1060 ± 63.7 µM and the “ΔΔGbind-exp, R225A” value was 3.46 kcal/mol.
